{
  "source": "paper PMC12780224",
  "about": "(Nature Communications, 2025)",
  "key": {"RdSqgA": {"biological_target": "T1, RdSqgA (Roseobacter denitrificans, UniProt Q167F5)", "T1 sequence (Q167F5 1-366)": "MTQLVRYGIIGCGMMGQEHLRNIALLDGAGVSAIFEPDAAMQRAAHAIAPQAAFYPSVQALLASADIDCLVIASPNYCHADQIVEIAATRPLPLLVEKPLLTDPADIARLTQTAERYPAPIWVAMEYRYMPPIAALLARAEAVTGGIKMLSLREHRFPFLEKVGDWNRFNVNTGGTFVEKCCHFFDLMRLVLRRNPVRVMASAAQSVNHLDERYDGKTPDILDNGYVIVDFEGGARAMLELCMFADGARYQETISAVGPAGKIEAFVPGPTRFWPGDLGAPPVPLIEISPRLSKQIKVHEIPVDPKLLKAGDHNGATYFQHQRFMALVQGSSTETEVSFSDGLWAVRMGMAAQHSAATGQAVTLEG", "experiment": "LC-MS of SQ formation", "type": "biochemical", "settings": "200 mM NH4HCO3 pH 7.0, room temperature overnight"}, "CtSqgA": {"biological_target": "T2, CtSqgA (Chaetoceros tenuissimus, UniProt A0AAD3HCU0)", "T2 sequence (A0AAD3HCU0 1-457)": "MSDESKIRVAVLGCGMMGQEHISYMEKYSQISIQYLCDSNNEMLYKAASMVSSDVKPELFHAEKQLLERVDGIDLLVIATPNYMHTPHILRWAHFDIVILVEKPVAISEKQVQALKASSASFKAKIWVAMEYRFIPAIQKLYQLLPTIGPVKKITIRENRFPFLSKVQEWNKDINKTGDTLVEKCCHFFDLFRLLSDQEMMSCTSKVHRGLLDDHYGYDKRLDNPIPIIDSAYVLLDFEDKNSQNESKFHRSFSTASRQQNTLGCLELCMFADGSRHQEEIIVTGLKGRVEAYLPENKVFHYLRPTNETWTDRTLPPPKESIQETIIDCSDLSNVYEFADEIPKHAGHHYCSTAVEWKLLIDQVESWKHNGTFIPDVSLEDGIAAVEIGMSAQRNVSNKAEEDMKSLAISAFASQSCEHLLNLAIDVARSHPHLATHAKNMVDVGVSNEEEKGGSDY", "experiment": "sulfoquinovosidase activity assay", "type": "biochemical", "settings": "details only in supplement"}, "PpSqgA": {"biological_target": "T3, PpSqgA (Porphyridium purpureum, UniProt A0A5J4YS60)", "T3 sequence (A0A5J4YS60 1-369)": "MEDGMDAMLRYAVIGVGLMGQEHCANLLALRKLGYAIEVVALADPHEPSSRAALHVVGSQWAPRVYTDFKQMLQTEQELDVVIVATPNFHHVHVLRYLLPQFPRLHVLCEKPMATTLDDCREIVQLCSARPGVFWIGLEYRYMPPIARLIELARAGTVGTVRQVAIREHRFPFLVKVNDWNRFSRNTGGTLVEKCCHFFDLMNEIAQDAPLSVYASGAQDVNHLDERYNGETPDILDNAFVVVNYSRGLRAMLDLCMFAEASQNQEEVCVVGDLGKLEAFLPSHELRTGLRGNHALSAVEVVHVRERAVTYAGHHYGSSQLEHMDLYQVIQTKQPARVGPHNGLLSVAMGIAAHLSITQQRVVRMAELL", "experiment": "sulfoquinovosidase activity assay", "type": "biochemical", "settings": "details only in supplement"}, "purified protein": {"substrate": "O=[N+]([O-])c1ccc(O[C@H]2O[C@H](CS(=O)(=O)O)[C@@H](O)[C@H](O)[C@H]2O)cc1", "experiment": "purified protein", "settings": "10 mM phosphate buffer pH 7.5 (general assay buffer)"}},
  "data": [
    {"molecule": "O=S(=O)(O)C[C@H]1O[C@H](OC[C@H](O)CO)[C@H](O)[C@@H](O)[C@@H]1O", "note": "[SQGro]", "values": [
      {"measurement": "LC-MS of SQ formation", "setting": "RdSqgA; 10 mM NAD+", "value": "NAD^+-dependent sulfoquinovosidase that acts on SQGro to form SQ"},
      {"measurement": "sulfoquinovosidase activity assay (SQ release)", "setting": "CtSqgA", "value": "These homologs have sulfoquinovosidase activity, allowing the liberation of SQ"},
      {"measurement": "sulfoquinovosidase activity assay (SQ release)", "setting": "PpSqgA", "value": "These homologs have sulfoquinovosidase activity, allowing the liberation of SQ"}
    ]},
    {"molecule": "NC(=O)c1ccc[n+]([C@@H]2O[C@H](COP(=O)(O)OP(=O)(O)OC[C@H]3O[C@@H](n4cnc5c(N)ncnc54)[C@H](O)[C@@H]3O)[C@@H](O)[C@H]2O)c1", "note": "[NAD^+]", "values": [
      {"measurement": "LC-MS of SQ formation", "setting": "RdSqgA; 20 uM SQGro", "value": "RdSqgA, revealed it to be an NAD^+-dependent sulfoquinovosidase"}
    ]},
    {"molecule": "AmSqgH (Alteromonas macleodii ATCC 27126) (protein) MSNAFCVNEPEWNDIKAADITEQPFLSDDKTLIVPTQYGELSLSISQFGLRIQSNVNAADDFGMLTQAPERLSLVLSGDQSHSTLAAGDYRLEVFAAPLHFKLYKNDVLVQQSATDGHFVRQHRLPPFAKTDKGWLLSLELSYDEAVYGLGEKWGKLDKRGQLIRSYNHDALGVNAEKSYKNTPYAWSPEGWNLFVHTPAPVTHGVGYALWSQRAYVCLVEDNVLDMFLFHQDSPAKCLQTYSELTGFAPTPPTWSLGVILSKAYYKDADELLAVAREVREKNMPCDVITLDGRAWQDTDTRFAFEWDPKRYADPQPVIDELKALGFKICVWEYPMISVKNPLYKKAADKGWLIKDKRTGEAYRYEWDLSPFGEVLTPLPDSGILDFTHPEAYEFWKTSHKPLFDLGIDMIKADFGEQLEDDNMLSYSGDSGNRLHNVYSMLYNRCVYEAADAYCKTGPFLFSRSAWTGSQRYPSQWGGDPQADWHGLAASIRGSLSWGMSGGPFFATDIGGFYKDTRDAELYVRWAQASVFSAHMRLHGIGPREPWSYGDAASNAVFEALKLRYKLIPYLKETAEKASQTGLPVQRAMALAFPEQPLSHGFEQQFMCGDDLLVVPCVVPGGKIKYYLPKGKWIRFGTEEVVQGEQYREEILALNDVAVFIQKGSRIVMGPDVQHTDMDMSNTTHWPA", "values": [
      {"measurement": "Km", "setting": "purified protein", "value": "13.0 ± 2.2", "unit": "mM"},
      {"measurement": "kcat", "setting": "purified protein", "value": "119 ± 19", "unit": "s⁻¹"}
    ]}
  ]
}
